Laboratory results as given in patent US7399744B2, “Methods for affecting body composition” (Amylin Pharmaceuticals, Inc., priority 2004, dated 2008).
Marks after values point to notes of the source that are not given here. Ends that are not written are not given here.

Tests used:
[1] = Amylin or sibutramine by 28-day osmotic pump in high fat-fed rats (Example 1); assay type: in vivo, rat; settings: for Body Weight / Caloric Intake: amylin 300 μg/kg/day or sibutramine 3 mg/kg/day, s.c. 28-day osmotic pump, high fat-fed rats, vs high fat-fed controls
Method: (§1) Low fat-fed rats (11% kcal from fat, D12329, Research Diets) were also implanted with pumps delivering vehicle. Food intake and body weight measurements were obtained weekly.
Rats were sacrificed by cardiac puncture under anesthesia. Triglyceride levels were measured on a COBAS Mira plasma analyzer (Roche), and leptin and insulin were assayed according to Linco Research rat RIA kits. Body composition was measured by chemical analysis (Covance Laboratories, Madison, Wis.).
All data are represented as mean±SEM. Analysis of variance was used to test for group differences.
The rats were fattened for 10 weeks prior to drug treatment. The high fat-fed rats were designated as obesity-prone (top 50% of weight gainers) or obesity-resistant (bottom 50%) based on the amount of weight gained through week 7.
In this study, an obesity-prone/obesity-resistant difference in drug interaction was found for protein weight in amylin-treated rats, and thus body composition parameters were measured separately in obesity-prone and obesity-resistant animals in each drug group (FIGS. 2A and 2B).

[2] = Three doses of amylin by osmotic pump in high fat-fed rats (Example 2); assay type: in vivo, rat; settings: for Body Weight / Caloric Intake: high fat-fed rats, vs high fat-fed controls
Text: as §1

[3] = Chronic amylin infusion vs pair-feeding in lean HSD rats (Example 3); assay type: in vivo, rat
Method: Lean, male Harlan SPRAGLE DAWLEY® (HSD) (Harlan 7012) rats were maintained on “standard chow” (˜5% calories from fat).
Food intake and body weight were recorded daily (FIGS. 5, 6A, 6B, 7, 8A, and 8B).
On the final day of the experiment, rats were deeply anaesthetized and sacrificed by cardiac puncture. Plasma triglycerides, glucose, and cholesterol were measured on a COBAS Mira plasma Analyzer (Roche). Plasma leptin and insulin were measured using Linco Research kits. (See, FIGS. 9A-9F and 10A-10E.) Body composition was measured by chemical analysis (Covance Laboratories, Madison, Wis.). Fat pad weights of the epididymal, retroperitoneal, subcutaneous, and perirenal fat pads (all unilateral; analysis only done in DIO animals) were carefully dissected and weighed (FIGS. 12A-12D). In analyzing the tissue biochemistry, […] were powdered under liquid N2 and extracted in chloroform:methanol. 0.6% NaCl solution was then added and the tubes were vortexed, centrifuged, and the organic phase was transferred to glass scintillation vials and dried under a stream of N2. Dried lipids were resuspended and triglycerides were quantified by enzymatic assay (Pointe Scientific, Inc.). Tissue glycogen was measured by the amyloglucosidase method. (See FIGS. 11A-11D.)
All data are represented as mean±SEM. Analysis of variance (ANOVA) and Bonferroni post-hoc tests were used to test for group differences (SYSTAT® for Windows). A P-value <0.05 was considered significant. Graphs were generated using PRISM® 4 for Windows (Graphpad Software).

[4] = Chronic amylin infusion vs pair-feeding in DIO Levin rats (Example 3); assay type: in vivo, rat; parameters: reduction in body weight relative to vehicle controls / Weight (g) / Ash (%): dose or concentration left out as unconfirmed
[5] = Amylin with prior or concurrent food restriction in retired female breeder rats (Example 4); assay type: in vivo, rat; settings: for % Change in fat / % Change in protein / Estimated Mean Weight change from treatment: amylin 100 μg/kg/day, retired female breeder rats, high fat diet
Text: Retired female breeder rats were maintained on a high fat diet (40% fat) for 8 weeks. Prior to drug treatment, rats were either ad-lib fed or food restricted to 95% of their starting body weight.
Changes in body weight and body composition are summarized in the table below and depicted in FIGS. 13A-13P.

[6] = Amylin versus pramlintide in DIO Levin rats (Example 5); assay type: in vivo, rat; settings: 76 nmol/kg/day by osmotic mini-pump for 24 days
Method: 48 DIO Levin rats (an in-bred model of diet induced obesity) were used in this study. […] Food intake and body weight was measured daily. […] The pair-fed groups were only allowed to consume the daily intakes of their respective drug-treated groups. For body composition, rats were scanned in a rodent NMR before treatment and after sacrifice (at the end of the study), allowing for the ability to calculate changes in carcass fat and protein (e.g., lean tissue).

[7] = test system: insulin-stimulated glycogen synthesis in soleus muscle; experiment: Soleus muscle assay; assay type: cell-based; settings: rat soleus muscle, inhibition of glucose incorporation into glycogen
Method: Concentrations of peptide dissolved in carrier-free buffers are determined by quantitative amino acid analysis, as described therein. The ability of compounds to act as agonists in this assay is determined by measuring EC50 values. […] Similar results were obtained with other agonist compounds listed above.

[8] = amylin 300 mg/kg/day, s.c. 28-day osmotic pump, body composition by chemical analysis
[9] = DIO rats, amylin 300 mg/kg/day, s.c. 28-day osmotic pump, body composition by chemical analysis
[10] = food access prior Ad-lib, during Ad-lib
[11] = food access prior Ad-lib, during Restricted
[12] = food access prior Restricted, during Ad-lib
[13] = food access prior Restricted, during Restricted

CC(C)CC(N(C)C)C1(c2ccc(Cl)cc2)CCC1 (stereo not drawn) [SIBUTRAMINE, sibutramine, reference compound]
Body Weight ([1]; Week 1): 6%* | Caloric Intake ([1]; Week 1): 45%* | Body Weight ([1]; Week 2): 6%* | Caloric Intake ([1]; Week 2): 8%* | Body Weight ([1]; Week 3): 6%* | Caloric Intake ([1]; Week 3): −1% | Body Weight ([1]; Week 4): 3% | Caloric Intake ([1]; Week 4): −3%

amylin: Amylin synthesized by Amylin Pharmaceuticals, Inc. by solid-phase chemistry; species not stated (KCNTATCATQRLANFLVHSSNNFGAILSSTNVGSNTY; not fully specified (C-terminus, bridges); cysteine pairing not given here; UniProt P10997 34-70, looked up)
Body Weight ([1]; Week 1): 6%* | Caloric Intake ([1]; Week 1): 45%* | Body Weight ([1]; Week 2): 7%* | Caloric Intake ([1]; Week 2): 14%* | Body Weight ([1]; Week 3): 8%* | Caloric Intake ([1]; Week 3): 10%* | Body Weight ([1]; Week 4): 8%* | Caloric Intake ([1]; Week 4): 10%* | tolerance/resistance ([1]; administered by osmotic pump): did not induce tolerance/resistance | protein compared to the control group (vehicle only) ([1]; obesity-prone rats): increase | body weight gain ([2]; 30 μg/kg/day): reduction | Body Weight ([2]; 30 μg/kg/day amylin, Week 1): 5%* | Caloric Intake ([2]; 30 μg/kg/day amylin, Week 1): 32%* | Body Weight ([2]; 30 μg/kg/day amylin, Week 2): 7%* | Caloric Intake ([2]; 30 μg/kg/day amylin, Week 2): 17%* | Body Weight ([2]; 30 μg/kg/day amylin, Week 3): 7%* | Caloric Intake ([2]; 30 μg/kg/day amylin, Week 3): 10% | Body Weight ([2]; 30 μg/kg/day amylin, Week 4): 7%* | Caloric Intake ([2]; 30 μg/kg/day amylin, Week 4): 8% | Body Weight ([2]; 100 μg/kg/day amylin, Week 1): 10%* | Caloric Intake ([2]; 100 μg/kg/day amylin, Week 1): 45%* | Body Weight ([2]; 100 μg/kg/day amylin, Week 2): 10%* | Caloric Intake ([2]; 100 μg/kg/day amylin, Week 2): 19%* | Body Weight ([2]; 100 μg/kg/day amylin, Week 3): 9%* | Caloric Intake ([2]; 100 μg/kg/day amylin, Week 3): 4% | Body Weight ([2]; 100 μg/kg/day amylin, Week 4): 8%* | Caloric Intake ([2]; 100 μg/kg/day amylin, Week 4): 9% | Body Weight ([2]; 300 μg/kg/day amylin, Week 1): 7%* | Caloric Intake ([2]; 300 μg/kg/day amylin, Week 1): 41%* | Body Weight ([2]; 300 μg/kg/day amylin, Week 2): 8%* | Caloric Intake ([2]; 300 μg/kg/day amylin, Week 2): 15%* | Body Weight ([2]; 300 μg/kg/day amylin, Week 3): 10%* | Caloric Intake ([2]; 300 μg/kg/day amylin, Week 3): 19%* | Body Weight ([2]; 300 μg/kg/day amylin, Week 4): 12%* | Caloric Intake ([2]; 300 μg/kg/day amylin, Week 4): 19%* | effects on food intake and body weight across doses ([2]; 30, 100 and 300 μg/kg/day): dose-dependent | percent body fat relative to pair-fed [3]: lower | percent protein [3]: remained relatively constant | weight gain compared to vehicle rats [3]: significant reduction | reduction in body weight relative to vehicle controls ([3]; amylin 300 μg/kg/day, osmotic pump): 12% | Fat (%) ([3]; amylin 300 μg/kg/day, s.c. 28-day osmotic pump, body composition by chemical analysis): 7.2 ± 1.5 % | Weight (g) ([3]; amylin 300 μg/kg/day, s.c. 28-day osmotic pump, end of study): 392.25* g | Moisture (%) [3, 8]: 67.57 ± 0.7 % | Protein (%) [3, 8]: 20.67 ± 0.74% | percent body fat ([4]; DIO rats): significant decrease | percent protein ([4]; DIO rats): significant preservation or gain | weight gain compared to vehicle rats ([4]; DIO rats): significant reduction | Fat (%) [4, 9]: 24.3 ± 6.5 % | Moisture (%) [4, 9]: 56.68 ± 4.4 % | Protein (%) [4, 9]: 18.09 ± 1.68 % | reduction in body weight relative to vehicle controls ([4]; DIO rats, osmotic pump): 12% | Ash (%) ([4]; DIO rats, s.c. 28-day osmotic pump, body composition by chemical analysis): 1.65 ± 0.34% | Weight (g) ([4]; DIO rats, s.c. 28-day osmotic pump, end of study): 548.94* g | muscle glycogen content ([4]; tissue biochemistry, amyloglucosidase method): significantly reduced | food intake versus vehicle treated counterparts ([5]; FIGS. 13E-13H): ate less | Body Weight ([5]; all treatment conditions): significantly reduced | percent protein ([5]; except in ad-lib fed then food restricted group): increases | percent body fat ([5]; except in chronically restricted animals): significant decreases | % Change in fat [5, 10]: −10.1 ± 0.5% | % Change in protein [5, 10]: 0.8 ± 0.1% | Estimated Mean Weight change from treatment [5, 10]: -21.8 ± 1.4 g | % Change in fat [5, 11]: −9.9 ± 0.9% | % Change in protein [5, 11]: 0.7 ± 0.1% | Estimated Mean Weight change from treatment [5, 11]: -23.1 ± 2.3 g | % Change in fat [5, 12]: −11.5 ± 0.6% | % Change in protein [5, 12]: 1.1 ± 0.1% | Estimated Mean Weight change from treatment [5, 12]: -18.2 ± 2.5 g | % Change in fat [5, 13]: −11.1 ± 1.0% | % Change in protein [5, 13]: 1.0 ± 0.1% | Estimated Mean Weight change from treatment [5, 13]: -17.1 ± 2.0 g | slowing body weight gain [6]: significant effect | effects on body composition ([6]; rodent NMR): favorable effects

^2,37h-Amylin
EC50 [7]: 1.63 nM
